The source of these data is patent US20240050428A1 (Cullgen (Shanghai), Inc., priority 2020, published 2024).

The subject of one experiment is MV4;11 cells. Nature of the experiment: Cell viability assay (CellTiter-Glo) in MV4;11 cells, alone or with gilteritinib. It is filed as cell-based. The following applies: Homo sapiens, read-out: MV4. (In ATP-based viability assays light output follows the ATP content of the culture.)
The test system of a further experiment is MOLM-13 cells. The experiment in a line: Cell viability assay (CellTiter-Glo) in MOLM-13 cells, alone or with gilteritinib. Type of experiment: cell-based. The following applies: Homo sapiens.
[1] abbreviates: MV4-11, 72 h, MV4;11 cells, compound alone (without gilteritinib), three days, CellTiter-Glo, 11 IC50.
The mark [2] stands for this setting: MV4-11, 72 h, MV4;11 cells, with gilteritinib 10 nM, three days, CellTiter-Glo, 11 IC50 gilteritinib.
Where [3] appears, read: MOLM-13, 72 h, MOLM-13 cells, compound alone (without gilteritinib), three days, CellTiter-Glo, read-out: MOLM-13 IC50.
The mark [4] stands for this setting: MOLM-13, 72 h, MOLM-13 cells, with gilteritinib 20 nM, three days, CellTiter-Glo, read-out: MOLM-13 IC50 gilteritinib.
Where [5] appears, read: MV4-11, 72 h, MV4;11 cells, compound with gilteritinib 10 nM, three days, CellTiter-Glo, 11 IC50 gilteritinib.
[6] abbreviates: MOLM-13, 72 h, MOLM-13 cells, compound with gilteritinib 20 nM, three days, CellTiter-Glo, read-out: MOLM-13 IC50 gilteritinib.
[7] abbreviates: 72 h, MV4;11 cells, compound alone (without gilteritinib), three days, CellTiter-Glo, 11 IC50.
The mark [8] stands for this setting: 72 h, MV4;11 cells, with gilteritinib 10 nM, three days, CellTiter-Glo, 11 IC50 gilteritinib.
[9] abbreviates: 72 h, MOLM-13 cells, compound alone (without gilteritinib), three days, CellTiter-Glo, read-out: MOLM-13 IC50.
[10] abbreviates: 72 h, MOLM-13 cells, with gilteritinib 20 nM, three days, CellTiter-Glo, read-out: MOLM-13 IC50 gilteritinib.

Where two headings read alike, the source gives them in different places.

For `O=C1CCC(N2C(=O)c3ccc(NCCC4CCC(n5cc(-c6cnc7ccccc7n6)cn5)CC4)cc3C2=O)C(=O)N1` (stereo not drawn) [GS-100, 2-(2,6-Dioxopiperidin-3-yl)-5-((2-(4-(4-(quinoxalin-2-yl)-1H-pyrazol-1-yl)cyclohexyl)ethyl)amino)isoindoline-1,3-dione], the IC50 was > 1000 nM in the experiment on MV4;11 cells (setting [1]), > 1000 nM in the experiment on MV4;11 cells (setting [2]), > 1000 nM in the experiment on MOLM-13 cells (setting [3]) and 100 to 1000 nM with MOLM-13 cells (setting [4]).

With `O=C1CCC(N2C(=O)c3ccc(NCCCc4cccc(-n5cc(-c6cnc7ccccc7n6)cn5)c4)cc3C2=O)C(=O)N1` (stereo not drawn) [GS-365, 2-(2,6-Ddioxopiperidin-3-yl)-5-((3-(3-(4-(quinoxalin-2-yl)-1H-pyrazol-1-yl)phenyl)propyl)amino)isoindoline-1,3-dione], the IC50 in the experiment with MV4;11 cells (setting [1]) is > 1000 nM; with MV4;11 cells (setting [2]) it was > 1000 nM; in the experiment with MOLM-13 cells (setting [3]), > 1000 nM; with MOLM-13 cells (setting [4]), 100 to 1000 nM.

`O=C1CCC(N2C(=O)c3ccc(NC[C@H]4C[C@H](n5cc(-c6cnc7ccc(N8CCOCC8)cc7n6)c(C6CC6)n5)C4)cc3C2=O)C(=O)N1` (stereo partly drawn) [GS-464, 5-(((trans-3-(3-cyclopropyl-4-(7-morpholinoquinoxalin-2-yl)-1H-pyrazol-1-yl)cyclobutyl)methyl)amino)-2-(2,6-dioxopiperidin-3-yl)isoindoline-1,3-dione]: the IC50 in the experiment with MV4;11 cells (setting [1]), in the experiment with MV4;11 cells (setting [5]), in the experiment on MOLM-13 cells (setting [3]) and with MOLM-13 cells (setting [6]) was < 10 nM each time.

Turning to `O=C1CCC(N2C(=O)c3ccc(NC[C@H]4C[C@H](n5cc(-c6cccc(Cl)c6)c(C6CC6)n5)C4)cc3C2=O)C(=O)N1` (stereo partly drawn) [GS-457, 5-(((trans-3-(4-(3-chlorophenyl)-3-cyclopropyl-1H-pyrazol-1-yl)cyclobutyl)methyl)amino)-2-(2,6-dioxopiperidin-3-yl)isoindoline-1,3-dione], the IC50 in the experiment on MV4;11 cells (setting [1]) lay within 10 to 100 nM; in the experiment on MV4;11 cells (setting [5]), 10 to 100 nM; in the experiment with MOLM-13 cells (setting [3]) it was 100 to 1000 nM; with MOLM-13 cells (setting [6]) it was 10 to 100 nM.

In the case of `O=C1CCC(N2C(=O)c3ccc(NCCCCCC(=O)N4CCN(c5ccccn5)CC4)cc3C2=O)C(=O)N1` (stereo not drawn) [GS-019, 2-(2,6-Dioxopiperidin-3-yl)-5-((6-oxo-6-(4-(pyridin-2-yl)piperazin-1-yl)hexyl)amino)isoindoline-1,3-dione], the IC50 came to 162 nM with MV4;11 cells (MV4-11, 72 h, 11 IC50); 9.4 nM in the experiment on MV4;11 cells (MV4-11, 72 h, 11 IC50 gilteritinib); 146 nM in the experiment on MOLM-13 cells (MOLM-13, 72 h, read-out: MOLM-13 IC50); 7 nM in the experiment with MOLM-13 cells (MOLM-13, 72 h, read-out: MOLM-13 IC50 gilteritinib).

`CC1CCCCC1c1cn([C@H]2C[C@H](CNc3ccc4c(c3)C(=O)N(C3CCC(=O)NC3=O)C4=O)C2)nc1C1CC1` (stereo partly drawn) [GS-633, 5-(((trans-3-(3-Cyclopropyl-4-(2-methylcyclohexyl)-1H-pyrazol-1-yl)cyclobutyl)methyl)amino)-2-(2,6-dioxopiperidin-3-yl)isoindoline-1,3-dione]: the IC50 was 10 to 100 nM in the experiment on MV4;11 cells (setting [1]), < 10 nM in the experiment on MV4;11 cells (setting [5]), 10 to 100 nM in the experiment on MOLM-13 cells (setting [3]) and 10 to 100 nM with MOLM-13 cells (setting [6]).

In the case of `O=C1CCC(N2C(=O)c3ccc(NCCNc4cccc(N5CCC(n6cc(-c7cnc8cccc(Br)c8n7)cn6)CC5)c4)cc3C2=O)C(=O)N1` (stereo not drawn) [GS-362, 5-((2-((3-(4-(4-(8-Bromoquinoxalin-2-yl)-1H-pyrazol-1-yl)piperidin-1-yl)phenyl)amino)ethyl)amino)-2-(2,6-dioxopiperidin-3-yl)isoindoline-1,3-dione], the IC50 in the experiment with MV4;11 cells (setting [7]), in the experiment on MV4;11 cells (setting [8]), in the experiment with MOLM-13 cells (setting [9]) and in the experiment with MOLM-13 cells (setting [10]) was < 10 nM each time.

Regarding `O=C1CCC(N2C(=O)c3ccc(NCCNc4cccc(-n5cc(-c6cnc7cccc(Br)c7n6)cn5)c4)cc3C2=O)C(=O)N1` (stereo not drawn) [GS-357, 5-((2-((3-(4-(8-Bromoquinoxalin-2-yl)-1H-pyrazol-1-yl)phenyl)amino)ethyl)amino)-2-(2,6-dioxopiperidin-3-yl)isoindoline-1,3-dione], the IC50 with MV4;11 cells (setting [7]), with MV4;11 cells (setting [8]), with MOLM-13 cells (setting [9]) and in the experiment on MOLM-13 cells (setting [10]) was 10 to 100 nM each time.

With `O=C1CCC(N2C(=O)c3ccc(NC[C@H]4C[C@H](n5cc(-c6cccc(C7CC7)n6)c(C6CC6)n5)C4)cc3C2=O)C(=O)N1` (stereo partly drawn) [GS-466, 5-(((trans-3-(3-cyclopropyl-4-(6-cyclopropylpyridin-2-yl)-1H-pyrazol-1-yl)cyclobutyl)methyl)amino)-2-(2,6-dioxopiperidin-3-yl)isoindoline-1,3-dione], the IC50 in the experiment with MV4;11 cells (setting [1]) lay in the range of 10 to 100 nM; in the experiment on MV4;11 cells (setting [5]), 10 to 100 nM; in the experiment on MOLM-13 cells (setting [3]) it was 100 to 1000 nM; with MOLM-13 cells (setting [6]), 10 to 100 nM.

For the molecule `Cc1cccc(-c2cnn([C@H]3C[C@H](CCCNc4ccc5c(c4)C(=O)N(C4CCC(=O)NC4=O)C5=O)C3)c2)n1` (stereo partly drawn) [GS-584, 2-(2,6-Dioxopiperidin-3-yl)-5-((3-(trans-3-(4-(6-methylpyridin-2-yl)-1H-pyrazol-1-yl)cyclobutyl)propyl)amino)isoindoline-1,3-dione], the IC50 in the experiment with MV4;11 cells (setting [1]) was 10 to 100 nM; with MV4;11 cells (setting [5]), 10 to 100 nM; in the experiment on MOLM-13 cells (setting [3]), 100 to 1000 nM; in the experiment on MOLM-13 cells (setting [6]), < 10 nM.

Regarding `O=C1CCC(N2C(=O)c3ccc(NCCC[C@H]4C[C@@H](n5cc(-c6cnc7ccc(N8CCOCC8)cc7n6)cn5)C4)cc3C2=O)C(=O)N1` (stereo partly drawn) [GS-207, 2-(2,6-Dioxopiperidin-3-yl)-5-((3-(cis-3-(4-(7-morpholinoquinoxalin-2-yl)-1H-pyrazol-1-yl)cyclobutyl)propyl)amino)isoindoline-1,3-dione], the IC50 is 100 to 1000 nM in the experiment on MV4;11 cells (setting [1]), 10 to 100 nM in the experiment on MV4;11 cells (setting [2]), 100 to 1000 nM in the experiment on MOLM-13 cells (setting [3]) and < 10 nM with MOLM-13 cells (setting [4]).

As for `Cc1cccc(-c2cnn([C@H]3C[C@H](CNc4ccc5c(c4)C(=O)N(C4CCC(=O)NC4=O)C5=O)C3)c2)n1` (stereo partly drawn) [GS-578, 2-(2,6-Dioxopiperidin-3-yl)-5-(((trans-3-(4-(6-methylpyridin-2-yl)-1H-pyrazol-1-yl)cyclobutyl)methyl)amino)isoindoline-1,3-dione], the IC50 was > 1000 nM in the experiment on MV4;11 cells (setting [1]), 100 to 1000 nM in the experiment with MV4;11 cells (setting [5]), > 1000 nM with MOLM-13 cells (setting [3]) and 100 to 1000 nM with MOLM-13 cells (setting [6]).

For `O=C1CCC(N2C(=O)c3ccc(NCCC[C@H]4C[C@H](n5cc(-c6cnc7ccc(N8CCOCC8)cc7n6)cn5)C4)cc3C2=O)C(=O)N1` (stereo partly drawn) [GS-188, 2-(2,6-Dioxopiperidin-3-yl)-5-((3-(trans-3-(4-(7-morpholinoquinoxalin-2-yl)-1H-pyrazol-1-yl)cyclobutyl)propyl)amino)isoindoline-1,3-dione], the IC50 in the experiment with MV4;11 cells (setting [1]) is 10 to 100 nM; in the experiment with MV4;11 cells (setting [2]), < 10 nM; in the experiment with MOLM-13 cells (setting [3]), 10 to 100 nM; with MOLM-13 cells (setting [4]) it was < 10 nM.

For the molecule `O=C1CCC(N2Cc3ccc(CCCCCC(=O)N4CCC(c5ccccc5)CC4)cc3C2=O)C(=O)N1` (stereo not drawn) [GS-095, 3-(1-Oxo-6-(6-oxo-6-(4-phenylpiperidin-1-yl)hexyl)isoindolin-2-yl)piperidine-2,6-dione], the IC50 was 100 to 1000 nM with MV4;11 cells (setting [7]), 10 to 100 nM with MV4;11 cells (setting [8]), 100 to 1000 nM in the experiment on MOLM-13 cells (setting [9]) and 10 to 100 nM with MOLM-13 cells (setting [10]).

`O=C1CCC(N2C(=O)c3ccc(NC[C@H]4C[C@H](n5cc(C6CC6)c(C6CC6)n5)C4)cc3C2=O)C(=O)N1` (stereo partly drawn) [GS-632, 5-(((trans-3-(3,4-Dicyclopropyl-1H-pyrazol-1-yl)cyclobutyl)methyl)amino)-2-(2,6-dioxopiperidin-3-yl)isoindoline-1,3-dione]: the IC50 was 100 to 1000 nM in the experiment with MV4;11 cells (setting [1]), 100 to 1000 nM in the experiment on MV4;11 cells (setting [5]), > 1000 nM in the experiment on MOLM-13 cells (setting [3]) and 100 to 1000 nM with MOLM-13 cells (setting [6]).

Regarding `O=C1CCC(N2C(=O)c3ccc(NC[C@H]4C[C@H](n5cc(-c6cccc(NC7CCOCC7)n6)cn5)C4)cc3C2=O)C(=O)N1` (stereo partly drawn) [GS-218, 2-(2,6-Dioxopiperidin-3-yl)-5-(((trans-3-(4-(6-((tetrahydro-2H-pyran-4-yl)amino)pyridin-2-yl)-1H-pyrazol-1-yl)cyclobutyl)methyl)amino)isoindoline-1,3-dione], the IC50 with MV4;11 cells (setting [1]) was 100 to 1000 nM; in the experiment with MV4;11 cells (setting [2]), 10 to 100 nM; in the experiment on MOLM-13 cells (setting [3]), 100 to 1000 nM; with MOLM-13 cells (setting [4]) it was 10 to 100 nM.

Turning to `O=C1CCC(N2C(=O)c3ccc(C4CCN(CCCn5cc(-c6cnc7ccccc7n6)cn5)CC4)cc3C2=O)C(=O)N1` (stereo not drawn) [GS-358, 2-(2,6-Dioxopiperidin-3-yl)-5-(1-(3-(4-(quinoxalin-2-yl)-1H-pyrazol-1-yl)propyl)piperidin-4-yl)isoindoline-1,3-dione], the IC50 in the experiment with MV4;11 cells (setting [7]), in the experiment on MV4;11 cells (setting [8]), with MOLM-13 cells (setting [9]) and in the experiment with MOLM-13 cells (setting [10]) was > 1000 nM in each case.

With `O=C(CCn1cc(-c2cnc3ccccc3n2)c(C2CC2)n1)NCc1ccc2c(c1)C(=O)N(C1CCC(=O)NC1=O)C2=O` (stereo not drawn) [GS-312, 3-(3-Cyclopropyl-4-(quinoxalin-2-yl)-1H-pyrazol-1-yl)-N-((2-(2,6-dioxopiperidin-3-yl)-1,3-dioxoisoindolin-5-yl)methyl)propanamide], the IC50 in the experiment with MV4;11 cells (setting [7]), in the experiment on MV4;11 cells (setting [8]), in the experiment on MOLM-13 cells (setting [9]) and in the experiment on MOLM-13 cells (setting [10]) was > 1000 nM each time.
